Source: US20060258644A1, “Pyrrolobenzodiazepines and heteroaryl, aryl and cycloalkylamino ketone derivatives as follicle stimulating hormone receptor (FSH-R) antagonists” (Wyeth, priority 2005, published 2006)
Structures can show the parent of a compound that is named as a salt. Where two headings read alike, the source gives them in different places.

What was measured:
human FSH receptor = biological target: T1, human FSH receptor (Homo sapiens, UniProt P23945); experiment: FSH receptor-dependent CRE-luciferase reporter gene assay (CHO FSH-R 6CRE-Luc cells); format: cell-based; conditions: for inhibition at 30 µM: test concentration in μM in parentheses (30 μM), % inhibition of the response to the EC50 of FSH
T1 construct: host or cells: CHO-K1 (CHO FSH-R 6CRE-Luc, 1D7 cells)
T1 sequence (P23945 18-695): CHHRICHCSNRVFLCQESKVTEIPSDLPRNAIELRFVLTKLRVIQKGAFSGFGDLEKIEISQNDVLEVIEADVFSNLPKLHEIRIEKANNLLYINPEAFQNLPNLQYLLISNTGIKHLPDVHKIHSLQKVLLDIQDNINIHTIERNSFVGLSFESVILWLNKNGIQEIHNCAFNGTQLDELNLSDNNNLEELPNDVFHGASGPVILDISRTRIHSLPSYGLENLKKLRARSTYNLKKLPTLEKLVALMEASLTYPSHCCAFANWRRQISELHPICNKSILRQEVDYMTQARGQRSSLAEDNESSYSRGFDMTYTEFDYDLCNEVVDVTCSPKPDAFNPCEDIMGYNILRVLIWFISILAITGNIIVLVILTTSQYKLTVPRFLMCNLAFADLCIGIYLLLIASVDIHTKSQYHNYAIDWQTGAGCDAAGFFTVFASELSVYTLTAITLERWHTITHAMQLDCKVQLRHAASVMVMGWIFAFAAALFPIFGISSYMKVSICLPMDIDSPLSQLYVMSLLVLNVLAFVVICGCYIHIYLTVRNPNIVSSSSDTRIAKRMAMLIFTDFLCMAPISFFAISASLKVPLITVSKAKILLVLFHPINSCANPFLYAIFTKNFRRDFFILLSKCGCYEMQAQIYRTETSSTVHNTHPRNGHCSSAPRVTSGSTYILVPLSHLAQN
Excerpt: Follicle-Stimulating Hormone Receptor-Dependent CRE-Luciferase Reporter Gene Assay for the Identification of Follicle-Stimulating Hormone (FSH) Antagonists
This procedure was used to identify and determine the relative potencies of human FSH receptor antagonists using a Chinese hamster ovarian cell line that stably produces the human FSH receptor and a luciferase reporter gene regulated by cAMP response elements.
The compounds were subsequently diluted in DMSO to working dilutions of 1 and 20 or 30 mM for 2-dose testing format and 1 μM-10 mM for dose-response format. The DMSO dilutions were diluted 500-fold in sterile growth medium [D-MEM/F-12 (GIBCO/BRL; Grand Island N.Y.) containing 15 mM HEPES, 2 mM 1-glutamine, pyridoxine hydrochloride, phenol red and 5% FetalClone II (HyClone Laboratories, Inc; Logan, Utah), 0.2% DMSO, 100 units penicillin G/ml, and 100 μg streptomycin sulfate/ml (GIBCO/BRL)]. The concentration of the vehicle in each of the compound dilutions was the same. • Positive Controls: Purified human FSH (>98%) was purchased from Cortex Biochem, Inc. (San Leandro, Calif.) and WAY-162002 (an FSH-R thiazolidinone antagonist) was obtained from the Wyeth Research compound repository. Preparation of Cells
The CHO FSH-R 6CRE-Luc cells (1D7 cells) were obtained from Affymax (Palo Alto, Calif.). These Chinese hamster ovary cells (CHO—K1) were genetically engineered to stably express the recombinant human FSH receptor gene and a luciferase reporter gene under the regulation of 6 copies of a cAMP response element. The cells were plated one day prior to treatment into 96-well white opaque plates at a density of 50,000 cells/100 μl/well in growth medium. On the day of treatment, the growth medium was removed from the wells by aspiration and 50 μl of fresh growth medium was added to each well. The cells were incubated at 37° C. in a humidified incubator with 5% CO2/95% air.
The treated cells were incubated for 4 hours at 37° C. in a humidified incubator with 5% CO2/95% air. At the end of-the incubation period, luciferase activity was measured by chemiluminescence using a commercially available kit (LucScreen, Tropix, Inc., Bedford, Mass.) according to the manufacturer's specifications, except that Buffer 1 and Buffer 2 were mixed together in equal proportion prior to the addition of 100 μl of the combined reagents to each well. Chemiluminescence was detected using a luminometer (EG & G Berthold Microlumat LB 96 P, Wallac, Gaithersburg, Md.) with chemiluminescence measured for 1 sec/well. Background luminescence was measured for each well prior to the addition of the LucScreen reagent.
In the 96-well 2-dose format, each compound was tested in duplicate at each dose. […] One plate was used to test a maximum of 22 compounds.
The EC50 of purified human FSH alone was tested in triplicate with each test compound. The doses chosen to test each compound were extrapolated from the initial 2-dose screening process. Along with the test compounds, purified human FSH was also tested in a dose response (0.03, 0.1, 0.3, 1, 3, 10, and 30 ng/ml) for a positive control and quality control. One plate was used for 3 test compounds and the FSH positive control.
Luciferase activity is expressed as relative light units/sec/well. Luciferase activity in antagonist was compared to the appropriate negative and positive controls. For 2-dose testing, results are reported as luciferase activity and are expressed as % inhibition of the response obtained from the EC50 of FSH. For dose-response testing, results are reported as IC50 values. Data were analyzed statistically by one-way analysis of variance with appropriate weighting and transformation and relevant paired test as determined by Biometrics (Wyeth Research, Princeton, N.J.). IC50 values were calculated using the Stat/Excel program developed by Biometrics with appropriate weighting and transformation.

[1] = dose-response in presence of EC50 of purified human FSH, read-out: CRE IC50

| IC50 (human FSH receptor; positive control, in the presence of EC50 of purified human FSH, read-out: IC50 in CRE-luciferase assay) | inhibition at 30 µM (human FSH receptor) | IC50 (human FSH receptor; [1]) | melting point | Structure (SMILES) |
| --- | --- | --- | --- | --- |
| 2 µM |  |  |  | NC(=O)c1cccc(N2C(=O)[C@@H](CC(=O)NCCc3c[nH]c4ccccc34)S[C@H]2c2ccc(C#Cc3ccccc3)s2)c1 (relative stereo) [3-[(2S*,5R*)-5-{[2-(1H-Indol-3-yl)-ethylcarbamoyl]-methyl}-4-oxo-2-(5-phenylethynyl-thiophen-2-yl)-thiazolidin-3-yl]-benzamide, reference compound] |
|  |  | 10.7 µM |  | O=C(CCc1cccnc1)c1ccc2n1Cc1ccccc1N(C(=O)c1ccc(-c3ccccc3)cc1)C2 [Example 2, 1-[10-(1,1′-Biphenyl-4-ylcarbonyl)-10,11-dihydro-5H-pyrrolo[2,1-c][1,4]benzodiazepin-3-yl]-3-pyridin-3-ylpropan-1-one formic acid salt] |
|  | 22% |  | 175 to 176 °C | Cc1cc(Cl)ccc1OCC(=O)N1Cc2ccc(C(=O)c3ccc(Cl)cc3)n2Cc2ccccc21 [Example 4, {10-[(4-Chloro-2-methylphenoxy)acetyl]-10,11-dihydro-5H-pyrrolo[2,1-c][1,4]benzodiazepin-3-yl}(4-chlorophenyl)methanone] |
|  |  | > 30 µM | 130 to 134 °C | Cc1cc(Cl)ccc1OCC(=O)N1Cc2ccc(C(=O)CCc3ccccc3)n2Cc2ccccc21 [Example 5, 1-{10-[(4-Chloro-2-methylphenoxy)acetyl]-10,11-dihydro-5H-pyrrolo[2,1-c][1,4]benzodiazepin-3-yl}-3-phenylpropan-1-one] |
|  |  | > 30 µM | 130 to 134 °C | Cc1cc(Cl)ccc1OCC(=O)N1Cc2ccc(C(=O)c3cccc4ccccc34)n2Cc2ccccc21 [Example 6, {10-[(4-Chloro-2-methylphenoxy)acetyl]-10,11-dihydro-5H-pyrrolo[2,1-c][1,4]benzodiazepin-3-yl}(1-naphthyl)methanone] |
|  |  | > 30 µM | 102 to 105 °C | Cc1cc(Cl)ccc1OCC(=O)N1Cc2ccc(C(=O)c3ccc(-c4ccccc4)cc3)n2Cc2ccccc21 [Example 7, 1,1′-Biphenyl-4-yl{10-[(4-chloro-2-methylphenoxy)acetyl]-10,11-dihydro-5H-pyrrolo[2,1-c][1,4]benzodiazepin-3-yl}methanone] |
|  |  | > 30 µM | 168 °C | Cc1cc(Cl)ccc1OCC(=O)N1Cc2ccc(C(=O)c3ccc(C(C)(C)C)cc3)n2Cc2ccccc21 [Example 8, (4-Tert-butylphenyl){10-[(4-chloro-2-methylphenoxy)acetyl]-10,11-dihydro-5H-pyrrolo[2,1-c][1,4]benzodiazepin-3-yl}methanone] |
|  |  | > 30 µM |  | Cc1cc(Cl)ccc1OCC(=O)N1Cc2ccc(C(=O)c3ccccc3-c3ccccc3)n2Cc2ccccc21 [Example 9, 1,1′-Biphenyl-2-yl{10-[(4-chloro-2-methylphenoxy)acetyl]-10,11-dihydro-5H-pyrrolo[2,1-c][1,4]benzodiazepin-3-yl}methanone] |
|  |  | > 30 µM | 195 °C | O=C(c1ccc(Cl)cc1)c1ccc2n1Cc1ccccc1N(C(=O)COc1ccc(Cl)cc1)C2 [Example 10, {10-[(4-Chlorophenoxy)acetyl]-10,11-dihydro-5H-pyrrolo[2,1-c][1,4]benzodiazepin-3-yl}(4-chlorophenyl)methanone] |
|  | 8% |  | 126 to 128 °C | O=C(CCc1ccccc1)c1ccc2n1Cc1ccccc1N(C(=O)COc1ccc(Cl)cc1)C2 [Example 11, 1-{10-[(4-Chlorophenoxy)acetyl]-10,11-dihydro-5H-pyrrolo[2,1-c][1,4]benzodiazepin-3-yl}-3-phenylpropan-1-one] |
|  |  | > 30 µM | 171 °C | CC(C)(C)c1ccc(C(=O)c2ccc3n2Cc2ccccc2N(C(=O)COc2ccc(Cl)cc2)C3)cc1 [Example 12, (4-tert-Butylphenyl){10-[(4-chlorophenoxy)acetyl]-10,11-dihydro-5H-pyrrolo[2,1-c][1,4]benzodiazepin-3-yl}methanone] |
|  | 14% |  | 155 to 157 °C | O=C(c1ccc(-c2ccccc2)cc1)c1ccc2n1Cc1ccccc1N(C(=O)COc1ccc(Cl)cc1)C2 [Example 13, 1,1′-Biphenyl-4-yl{10-[(4-chlorophenoxy)acetyl]-10,11-dihydro-5H-pyrrolo[2,1-c][1,4]benzodiazepin-3-yl}methanone] |
|  |  | > 30 µM |  | O=C(c1ccccc1-c1ccccc1)c1ccc2n1Cc1ccccc1N(C(=O)COc1ccc(Cl)cc1)C2 [Example 14, 1,1′-Biphenyl-2-yl{10-[(4-chlorophenoxy)acetyl]-10,11-dihydro-5H-pyrrolo[2,1-c][1,4]benzodiazepin-3-yl}methanone] |
|  |  | 12.1 µM | 135 to 136 °C | Cc1ccccc1-c1ccc(C(=O)N2Cc3ccc(C(=O)CCc4cccnc4)n3Cc3ccccc32)cc1 [Example 15, 1-{10-[(2′-Methyl-1,1′-biphenyl-4-yl)carbonyl]-10,11-dihydro-5H-pyrrolo[2,1-c][1,4]benzodiazepin-3-yl}-3-pyridin-3-ylpropan-1-one] |

| Structure (SMILES) | IC50 (human FSH receptor; positive control, in the presence of EC50 of purified human FSH, read-out: IC50 in CRE-luciferase assay) | inhibition at 30 µM (human FSH receptor) | IC50 (human FSH receptor; [1]) | melting point |
| --- | --- | --- | --- | --- |
| Cc1ccccc1-c1ccc(C(=O)N2Cc3ccc(C(=O)CNc4cccnc4)n3Cc3ccccc32)cc1C [Example 1, 1-{10-[(2,2′-Dimethyl-1,1′-biphenyl-4-yl)carbonyl]-10,11-dihydro-5H-pyrrolo[2,1-c][1,4]benzodiazepin-3-yl}-2-(pyridin-3-ylamino)ethanone formic acid salt] |  | 4% |  |  |
